The term Papp denotes the rate of passage across a membrane or cell layer, normalised by area and donor concentration.

In patent US20230096766A1, “AMINO ACID HAVING FUNCTIONAL GROUP CAPABLE OF INTERMOLECULAR HYDROGEN BONDING, PEPTIDE COMPOUND CONTAINING SAME AND METHOD FOR PRODUCTION THEREOF” (Chugai Seiyaku Kabushiki Kaisha, priority 2018, published 2023) one finds Papp data, which are given here for 18 molecules.

Where a SMILES comes first, the peptide text is derived from it. Bridges are numbered along the chain shown (N, C = ends). [ ]: non-standard residue; d: D form. The star is where a group is joined. Phe(4-CF3) = N[C@@H](Cc1ccc(C(F)(F)F)cc1)C(=O)O; NMehPhe = CN[C@@H](CCc1ccccc1)C(=O)O; NMeF = CN[C@@H](Cc1ccccc1)C(=O)O; NMeI = CC[C@H](C)[C@H](NC)C(=O)O; NMeL = CN[C@@H](CC(C)C)C(=O)O; NMeV = CN[C@H](C(=O)O)C(C)C; NMeAbu = CC[C@H](NC)C(=O)O; Piperidide = C1CCN(*)CC1; CH2CONHMe = CNC(=O)C*; Me2NCH2CH2 = CN(C)CC*; NBuGly = CCCCNCC(=O)O; NPrGly = CCCNCC(=O)O; Sar = CNCC(=O)O; tBu = CC(C)(C)*

A short description of the first data set: in vitro. To be noted: human, Caco-2, Caco-2.
With `CCCN1CC(=O)N(C)[C@@H](CC(C)C)C(=O)N[C@@H](COC(C)(C)C)C(=O)N(C)[C@@H](Cc2ccccc2)C(=O)N(C)[C@@H](C(C)C)C(=O)N[C@H](C(=O)N2CCCCC2)CC(=O)N[C@H](C(C)C)C(=O)N(C)[C@@H](Cc2ccccc2)C(=O)N[C@@H](COCCN(C)C)C(=O)N(C)[C@@H](CC(C)C)C(=O)N[C@@H]([C@@H](C)O)C1=O` [pd50] ([dV][NMeF]S(Me2NCH2CH2)[NMeL]T[NPrGly][NMeL]S(tBu)[NMeF][NMeV]D-Piperidide; lactam N-11), the Papp was found to be 0.15 ×10⁻⁶ cm/s.
Same read-out and setting: as for `CCCCN1CC(=O)N(C)[C@@H](CC(C)C)C(=O)N[C@@H](COCCN(C)C)C(=O)N(C)[C@@H](Cc2ccccc2)C(=O)N(C)[C@@H](C(C)C)C(=O)N[C@H](C(=O)N2CCCCC2)CC(=O)N[C@H](CC(C)C)C(=O)N(C)[C@@H](Cc2ccccc2)C(=O)N[C@@H](CC(C)C)C(=O)N(C)[C@@H](CC(C)C)C(=O)N[C@@H]([C@@H](C)O)C1=O` [pd51] ([dL][NMeF]L[NMeL]T[NBuGly][NMeL]S(Me2NCH2CH2)[NMeF][NMeV]D-Piperidide; lactam N-11), the figure is 0.07 ×10⁻⁶ cm/s.
Take `CCCN1CC(=O)N(C)[C@@H](CC(C)C)C(=O)N[C@@H](COCCN(C)C)C(=O)N(C)[C@@H](Cc2ccccc2)C(=O)N(C)[C@@H](C(C)C)C(=O)N[C@H](C(=O)N2CCCCC2)CC(=O)N[C@H](C(C)C)C(=O)N(C)[C@@H](Cc2ccccc2)C(=O)N[C@@H](CC(C)C)C(=O)N(C)[C@@H](CC(C)C)C(=O)N[C@@H]([C@@H](C)O)C1=O` [pd52] ([dV][NMeF]L[NMeL]T[NPrGly][NMeL]S(Me2NCH2CH2)[NMeF][NMeV]D-Piperidide; lactam N-11): the Papp stood at 0.12 ×10⁻⁶ cm/s.
Consider `CCCCN1CC(=O)N(C)[C@@H](CC(C)C)C(=O)N[C@@H](COC(C)(C)C)C(=O)N(C)[C@@H](Cc2ccccc2)C(=O)N(C)[C@@H](C(C)C)C(=O)N[C@H](C(=O)N2CCCCC2)CC(=O)N[C@H](C(C)C)C(=O)N(C)[C@@H](Cc2ccccc2)C(=O)N[C@@H](COCCN(C)C)C(=O)N(C)[C@@H](CC(C)C)C(=O)N[C@@H]([C@@H](C)O)C1=O` [pd53] ([dV][NMeF]S(Me2NCH2CH2)[NMeL]T[NBuGly][NMeL]S(tBu)[NMeF][NMeV]D-Piperidide; lactam N-11), for which the Papp stood at 0.14 ×10⁻⁶ cm/s.

The same data set, now with this note: human, Caco-2, Caco-2 (cm/sec).
In the case of `CC[C@H]1C(=O)N[C@@H](Cc2ccc(O)cc2)C(=O)N(C)[C@@H](CC(C)C)C(=O)N(C)[C@@H](CC(C)C)C(=O)N[C@@H](C(C)C)C(=O)N(C)[C@@H](Cc2ccccc2)C(=O)N(C)[C@@H](CC(C)C)C(=O)N[C@@H]([C@@H](C)O)C(=O)N(C)CC(=O)N(C)[C@@H](CC(C)C)C(=O)N[C@H](C(=O)N2CCCCC2)CC(=O)N1C` [Compound F06] ([NMeAbu]Y[NMeL][NMeL]V[NMeF][NMeL]T[Sar][NMeL]D-Piperidide; lactam N-11), the Papp amounted to 0.23 ×10⁻⁶ cm/s.
`CCCCN1CC(=O)N(C)[C@@H](Cc2ccccc2)C(=O)N(C)[C@@H](CC(C)C)C(=O)N[C@@H](CC(C)C)C(=O)N(C)[C@@H](CC(C)C)C(=O)N[C@H](C(=O)N2CCCCC2)CC(=O)N(C)CC(=O)N(C)[C@@H](CC(C)C)C(=O)N[C@@H](Cc2ccc(O)cc2)C(=O)N(C)[C@@H](CC)C(=O)N[C@@H]([C@@H](C)O)C1=O` [Compound F07] ([Sar][NMeL]Y[NMeAbu]T[NBuGly][NMeF][NMeL]L[NMeL]D-Piperidide; lactam N-11) had an apparent permeability (Papp) of 0.54 ×10⁻⁶ cm/s.
Same read-out and setting: to `CCCCN1CC(=O)N(C)[C@@H](Cc2ccccc2)C(=O)N(C)[C@@H](CC(C)C)C(=O)N[C@@H](Cc2ccc(O)cc2)C(=O)N(C)[C@@H](CC(C)C)C(=O)N[C@H](C(=O)N2CCCCC2)CC(=O)N(C)CC(=O)N(C)[C@@H](CC(C)C)C(=O)N[C@@H]([C@@H](C)CC)C(=O)N(C)[C@@H](CC(C)C)C(=O)N[C@@H]([C@@H](C)O)C1=O` [Compound F08] ([Sar][NMeL]I[NMeL]T[NBuGly][NMeF][NMeL]Y[NMeL]D-Piperidide; lactam N-11) belongs 0.05 ×10⁻⁶ cm/s.

Still in this data set, the particulars now being: human, Caco-2, Caco-2 (membrane permeability).
`CCCCN1CC(=O)N(C)[C@@H](CC(C)C)C(=O)N[C@@H](COCC(=O)NC)C(=O)N(C)[C@@H](CCc2ccccc2)C(=O)N(C)[C@@H](CC(C)C)C(=O)N[C@H](C(=O)N2CCCCC2)CC(=O)N[C@H](CC(C)C)C(=O)N(C)[C@@H](CC(C)C)C(=O)N[C@@H](Cc2ccccc2)C(=O)N(C)[C@@H](CC(C)C)C(=O)N[C@@H]([C@@H](C)O)C1=O` [Compound I02] ([dL][NMeL]F[NMeL]T[NBuGly][NMeL]S(CH2CONHMe)[NMehPhe][NMeL]D-Piperidide; lactam N-11): the Papp was determined as 0.052 ×10⁻⁶ cm/s.
The same measure, in the same setting: as for `CNC(=O)COC[C@@H]1NC(=O)[C@H](CC(C)C)N(C)C(=O)C[C@@H](C(=O)N2CCCCC2)NC(=O)[C@H](CC(C)C)N(C)C(=O)CN(C)C(=O)[C@H]([C@@H](C)O)NC(=O)[C@H](CC(C)C)N(C)C(=O)[C@H](CCc2ccccc2)N(C)C(=O)[C@H](CC(C)C)NC(=O)[C@H](Cc2ccccc2)N(C)C(=O)[C@H](CC(C)C)N(C)C1=O` [Compound I03] ([NMeL]S(CH2CONHMe)[NMeL][NMeF]L[NMehPhe][NMeL]T[Sar][NMeL]D-Piperidide; lactam N-11), the figure is 0.25 ×10⁻⁶ cm/s.
The same measure, in the same setting: to `CCCN1CC(=O)N(C)[C@@H](CC(C)C)C(=O)N[C@H](C(=O)N2CCCCC2)CC(=O)N(C)[C@@H](CC(C)C)C(=O)N[C@@H](Cc2ccccc2)C(=O)N(C)[C@@H](CC(C)C)C(=O)N(C)[C@@H](CC(C)C)C(=O)N[C@@H](COCC(=O)NC)C(=O)N(C)[C@@H](CCc2ccccc2)C(=O)N(C)[C@@H](CC(C)C)C(=O)N[C@@H]([C@@H](C)O)C1=O` [Compound I04] ([NMeL]F[NMeL][NMeL]S(CH2CONHMe)[NMehPhe][NMeL]T[NPrGly][NMeL]D-Piperidide; lactam N-11) belongs 0.55 ×10⁻⁶ cm/s; to `CCCCN1CC(=O)N(C)[C@@H](Cc2ccccc2)C(=O)N[C@@H](COCC(=O)NC)C(=O)N(C)[C@@H](CC(C)C)C(=O)N[C@@H]([C@@H](C)O)C(=O)N(CCC)CC(=O)N(C)[C@@H](Cc2ccccc2)C(=O)N(C)[C@@H](CC(C)C)C(=O)N[C@@H](CC(C)C)C(=O)N(C)[C@@H](CC(C)C)C(=O)N[C@H](C(=O)N2CCCCC2)CC1=O` [Compound I05] ([NBuGly][NMeF]S(CH2CONHMe)[NMeL]T[NPrGly][NMeF][NMeL]L[NMeL]D-Piperidide; lactam N-11), 0.8 ×10⁻⁶ cm/s.
On the same count and under the same terms, as for `CCCCN1CC(=O)N(C)[C@@H](Cc2ccccc2)C(=O)N[C@@H]([C@@H](C)CC)C(=O)N(C)[C@@H](CC(C)C)C(=O)N[C@@H]([C@@H](C)O)C(=O)N(CCC)CC(=O)N(C)[C@@H](Cc2ccccc2)C(=O)N(C)[C@@H](CC(C)C)C(=O)N[C@@H](COCC(=O)NC)C(=O)N(C)[C@@H](CC(C)C)C(=O)N[C@H](C(=O)N2CCCCC2)CC1=O` [Compound I06] ([NBuGly][NMeF]I[NMeL]T[NPrGly][NMeF][NMeL]S(CH2CONHMe)[NMeL]D-Piperidide; lactam N-11), the figure is 0.24 ×10⁻⁶ cm/s.
`CCCCN1CC(=O)N(C)[C@@H](CC(C)C)C(=O)N[C@@H](CC(C)C)C(=O)N(C)[C@@H](Cc2ccccc2)C(=O)N(C)[C@@H]([C@@H](C)CC)C(=O)N[C@H](C(=O)N2CCCCC2)CC(=O)N[C@H](CC(C)C)C(=O)N(C)[C@@H](Cc2ccccc2)C(=O)N[C@@H](CCC(=O)NC)C(=O)N(C)[C@@H](CC(C)C)C(=O)N[C@@H]([C@@H](C)O)C1=O` [Compound J01] ([dL][NMeF]E(NHMe)[NMeL]T[NBuGly][NMeL]L[NMeF][NMeI]D-Piperidide; lactam N-11): the Papp was determined as 0.062 ×10⁻⁶ cm/s.
On to `CCCCN1CC(=O)N(C)[C@@H](CC(C)C)C(=O)N[C@@H](CCC(=O)NC)C(=O)N(C)[C@@H](Cc2ccccc2)C(=O)N(C)[C@@H]([C@@H](C)CC)C(=O)N[C@H](C(=O)N2CCCCC2)CC(=O)N[C@H](CC(C)C)C(=O)N(C)[C@@H](CC(C)C)C(=O)N[C@@H](Cc2ccc(C(F)(F)F)cc2)C(=O)N(C)[C@@H](CC(C)C)C(=O)N[C@@H]([C@@H](C)O)C1=O` [Compound J02] ([dL][NMeL][Phe(4-CF3)][NMeL]T[NBuGly][NMeL]E(NHMe)[NMeF][NMeI]D-Piperidide; lactam N-11), for which the Papp came to 0.004 ×10⁻⁶ cm/s.
Molecule `CCCN1CC(=O)N(C)[C@@H](CC(C)C)C(=O)N[C@H](C(=O)N2CCCCC2)CC(=O)N(C)[C@@H](CC(C)C)C(=O)N[C@@H](CCC(=O)NC)C(=O)N(C)[C@@H](CC(C)C)C(=O)N(C)[C@@H](Cc2ccccc2)C(=O)N[C@@H](CC(C)C)C(=O)N(C)[C@@H](Cc2ccccc2)C(=O)N(C)[C@@H]([C@@H](C)CC)C(=O)N[C@@H]([C@@H](C)O)C1=O` [Compound J03] ([NMeL]E(NHMe)[NMeL][NMeF]L[NMeF][NMeI]T[NPrGly][NMeL]D-Piperidide; lactam N-11) came in with a Papp of 0.21 ×10⁻⁶ cm/s.
Same read-out and setting: to `CCCN1CC(=O)N(C)[C@@H](CC(C)C)C(=O)N[C@H](C(=O)N2CCCCC2)CC(=O)N(C)[C@@H](CC(C)C)C(=O)N[C@@H](Cc2ccc(C(F)(F)F)cc2)C(=O)N(C)[C@@H](CC(C)C)C(=O)N(C)[C@@H](CC(C)C)C(=O)N[C@@H](CCC(=O)NC)C(=O)N(C)[C@@H](Cc2ccccc2)C(=O)N(C)[C@@H]([C@@H](C)CC)C(=O)N[C@@H]([C@@H](C)O)C1=O` [Compound J04] ([NMeL][Phe(4-CF3)][NMeL][NMeL]E(NHMe)[NMeF][NMeI]T[NPrGly][NMeL]D-Piperidide; lactam N-11) belongs 0.087 ×10⁻⁶ cm/s; to `CCCCN1CC(=O)N(C)[C@@H](Cc2ccccc2)C(=O)N[C@@H](CCC(=O)NC)C(=O)N(C)[C@@H](CC(C)C)C(=O)N[C@@H]([C@@H](C)O)C(=O)N(CCCC)CC(=O)N(C)[C@@H](Cc2ccccc2)C(=O)N(C)[C@@H](CC(C)C)C(=O)N[C@@H](CC(C)C)C(=O)N(C)[C@@H]([C@@H](C)CC)C(=O)N[C@H](C(=O)N2CCCCC2)CC1=O` [Compound J05] ([NBuGly][NMeF]E(NHMe)[NMeL]T[NBuGly][NMeF][NMeL]L[NMeI]D-Piperidide; lactam N-11), 0.052 ×10⁻⁶ cm/s.
Molecule `CCCCN1CC(=O)N(C)[C@@H](Cc2ccccc2)C(=O)N[C@@H]([C@@H](C)CC)C(=O)N(C)[C@@H](CC(C)C)C(=O)N[C@@H]([C@@H](C)O)C(=O)N(CCCC)CC(=O)N(C)[C@@H](Cc2ccccc2)C(=O)N(C)[C@@H](CC(C)C)C(=O)N[C@@H](CCC(=O)NC)C(=O)N(C)[C@@H]([C@@H](C)CC)C(=O)N[C@H](C(=O)N2CCCCC2)CC1=O` [Compound J06] ([NBuGly][NMeF]I[NMeL]T[NBuGly][NMeF][NMeL]E(NHMe)[NMeI]D-Piperidide; lactam N-11) had a Papp of 0.0085 ×10⁻⁶ cm/s.
